Values quoted from earlier work as cited in publication PMC4237557 (Diabetes, Obesity & Metabolism, 2014).

Tests used:
[1] = system: insulin-like growth factor 1 receptor (IGF-1R); conditions: in vitro
[2] = in vitro

Substance | Affinity for IGF-1R compared with human insulin [1] | Mitogenicity compared with endogenous human insulin [2] | Glucose-lowering potency compared with parent glargine (M0)
21^A-Gly-human insulin [M1] | lower affinity | does not exhibit an increased affinity for IGF-1R or increased mitogenicity | equal glucose-lowering potency
21^A-Gly-des-30^B-Thr-human insulin [M2] | lower affinity |  | 
